Columns and labels:
LPA3 receptor = biological target: T1, LPA3 receptor (Homo sapiens, UniProt Q9UBY5); assay: GTP[γ-35S] binding assay, HEK293 T membranes, LPA3; assay type: biochemical; details: HEK293 transfected with LPA3, FIG. 59C
T1 construct: expressed in transfected cells; host or cells: HEK293 T cells (crude microsomal membranes)
Method: (§1) OMPT also enhances GTP [γ-^35S] binding in the cell membrane of HEK293 T cells expressing LPA3. The procedures for these GTP [γ-^35S] binding assays involve co-transfection of HEK293 T cells with expression vectors encoding one of the receptors for LPA (LPA1, LPA2, or LPA3) or S1P (S1P3/Edg3) by calcium phosphate precipitation, together with plasmids encoding three G proteins (rat Gi2α, cow β1, and cow γ2). After about 48 hours, cells were harvested and crude microsomal membranes were prepared. Membranes containing about 5 μg of protein were incubated in 0.1 ml of GTP-binding buffer (50 mM Hepes, 100 mM NaCl, 10 mM MgCl2, pH7.5) having 5 μg of saponin, 0.1% fatty acid-free BSA, 10 μM GDP, 0.1 nM GTP[γ-^35S] (1200 Ci/mmole) together with indicated concentrations of LPA or OMPT for about 30 min at 30° C. Membranes were collected using a 96-well Brandel Cell Harvester (Gaithersburg, Md.), and bound radionuclide was determined using a Packard TopCount liquid scintillation counter.

PC-3 cells [1] = assay: membrane ruffling and cell migration in PC-3 cells; assay type: cell-based, human
LPA1 receptor [2] = biological target: T2, LPA1 receptor (Homo sapiens, UniProt Q92633); assay: HA-Erk1 phosphorylation in HEK 293 T cells transfected with LPA1; assay type: cell-based; parameters: FLAG; expressed in transfected cells; host or cells: HEK 293 T cells; details: LPA1 transfected HEK 293 T; 0.01, 0.1, or 1 μM
Description: We have also tested kinase activation by the LPA3 receptor subtype using OMPT as a tool. We determined whether activation of the LPA3 receptor by OMPT can be linked to ERK activation (related to MAP kinase signaling pathway) in mammalian cells, HEK 293 T cells, by co-transfecting hemagglutinin (HA)-tagged Erk1 (HA-Erk1) with either a control vector or an expression vector having LPA1, LPA2, or LPA3. […] There is no phosphorylation of HA-Erk1 at lower concentration of LPA or OMPT in the absence of LPA receptors. […] Thus, the data confirmed that OMPT, an LPA derivative, is a selective agonist for LPA3 receptor subtype, capable of inducing MAPK activation.

PKA = PKA activation in PC-3 cells; assay type: cell-based, human
PC-3 cells [3] = assay: cellular proliferation and growth factor withdrawal-induced apoptosis; assay type: cell-based, human
ERK1/2 = ERK1/2 (p42/p44-MAPK) phosphorylation immunoblot in prostate cancer cells; assay type: cell-based, human; details: PC-3 and DU145 cells
Method: (§2) The cells were then lysed in SDA sample buffer or ice-cold X-100 lysis buffer (1% Triton X-100, 50 mM HEPES [pH7.4], 150 mM NaCl, 1.5 mM MgCl2, 1 mM EGTA, 10% glycerol, 100 mM NaF, 10 mM Na pyrophosphate, and 1 mM aprotinin). Total cellular protein was resolved by SDS/PAGE, transferred to immobilon [poly (vinylidene difluoride)], and immunoblotted with antibodies following the protocols provided by manufactures. Immunocomplexes were visualized with an enhanced chemiluminescence detection kit (Amersham Pharmacia) using horseradish peroxidase-conjugated secondary antibodies (Bio-Rad).

LPA1 receptor [4] = biological target: T2, LPA1 receptor; assay: calcium mobilization in Sf9 insect cells expressing LPA1; assay type: cell-based
AKT = AKT phosphorylation immunoblot in prostate cancer cells; assay type: cell-based, human; details: PC-3 and DU145 cells
Method: as §2

OVCAR3 cells = assay: calcium mobilization assay in ovarian cancer OVCAR3 cells; assay type: cell-based, human; details: Homo sapiens, OVCAR-3; OVCAR3 cells; 95% confidence about 7.0 to about 11.5 nM
Method: (§3) The procedures for these calcium mobilization assays are as followed: OVCAR3 cells and PC-3 cells were cultured in RPMI 1640 medium with 10% FBS (fetal bovine serum). HT29 cells were cultured in DMEM (high glucose) medium with 10% FBS. All cells were cultured at about 37° C. in a humidified atmosphere with 5% CO2. After starvation in serum-free medium for about 12-24 hours, cells were harvested and loaded with about 1 μM of Indo-1 AM in serum-free medium for about 45 min at 37° C. Cells were washed in PBS and resuspended at 2×10^6 cells/ml in a [Ca^2+]i assay buffer (Sodium chloride, NaCl, about 140 mM, potassium chloride, KCl, about 2 mM, magnesium chloride, MgCl2, about 1 mM, calcium chloride, CaCl2, about 2 mM, in about 25 mM HEPES buffer at pH 7.4 with about 10 mM of glucose). Cytoplasmic [Ca^2+]i was determined at an excitation wavelength of about 331 nm and an emission wavelength of 410 nm using a fluorescence spectrophotometer (Hitachi, F-4000). Approximately 3×10^6 cells were used for [Ca^2+]l determination in a stirred quartz cuvette kept at about 37° C. OMPT or 18:1 LPA was dissolved in about 0.1% BSA/PBS solution and applied immediately to the cells. To test other LPA derivatives of the invention, cells were exposed to the derivatives for about 3 minutes or for a period of various times in time course related experiments before a LPA agonist, such as 18:1 LPA, OMPT, or other LPAs was applied into the cuvette.
(§4) The concentration of calcium mobilization giving the half-maximal response (EC50) was obtained from the concentration-response curve fitted to a sigmoidal logistic equation, with the maximal calcium response set to 100% using the GraphPad Prism. Maximal response value is expressed as mean +/−s.e.m. EC50 value is expressed with 95% confidence.

S1P3 receptor = biological target: T3, S1P3 receptor (Homo sapiens, UniProt Q99500); assay: GTP[γ-35S] binding assay, HEK293 T membranes, S1P3 control; assay type: biochemical; details: cells transfected with S1P3, negative control, FIG. 59D
T3 construct: expressed in transfected cells; host or cells: HEK293 T cells (crude microsomal membranes)
Method: as §1

LPA2 receptor = LPA2 receptor (Homo sapiens, UniProt Q9HBW0); assay: calcium mobilization in Sf9 insect cells expressing LPA2; assay type: cell-based; parameters: expressed in transfected cells; host or cells: Sf9 insect cells
HT29 cells = assay: calcium mobilization assay in colon cancer HT29 cells; assay type: cell-based; details: HT29 cells
Method: as §3, §4

LPA2 receptor, sequence (Q9HBW0 whole entry): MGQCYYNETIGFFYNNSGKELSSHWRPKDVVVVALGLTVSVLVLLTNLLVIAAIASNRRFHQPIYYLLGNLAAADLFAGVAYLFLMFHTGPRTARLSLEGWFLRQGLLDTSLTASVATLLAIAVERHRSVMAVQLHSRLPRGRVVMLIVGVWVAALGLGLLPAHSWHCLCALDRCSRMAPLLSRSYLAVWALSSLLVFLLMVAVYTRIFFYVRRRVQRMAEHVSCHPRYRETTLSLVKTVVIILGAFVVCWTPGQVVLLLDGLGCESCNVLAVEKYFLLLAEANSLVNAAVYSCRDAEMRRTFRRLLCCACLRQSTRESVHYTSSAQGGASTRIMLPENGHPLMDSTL
T2 sequence (Q92633 whole entry): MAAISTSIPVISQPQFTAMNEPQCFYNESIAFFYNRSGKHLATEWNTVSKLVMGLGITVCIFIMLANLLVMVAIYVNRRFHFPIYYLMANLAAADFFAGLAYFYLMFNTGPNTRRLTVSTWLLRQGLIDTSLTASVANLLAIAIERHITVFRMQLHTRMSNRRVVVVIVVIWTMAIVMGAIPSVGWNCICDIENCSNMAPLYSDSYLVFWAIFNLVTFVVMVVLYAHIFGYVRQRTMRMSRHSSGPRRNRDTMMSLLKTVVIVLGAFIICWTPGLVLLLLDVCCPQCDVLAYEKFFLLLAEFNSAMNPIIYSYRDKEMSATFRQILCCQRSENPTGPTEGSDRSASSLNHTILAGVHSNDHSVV
T3 sequence (Q99500 whole entry): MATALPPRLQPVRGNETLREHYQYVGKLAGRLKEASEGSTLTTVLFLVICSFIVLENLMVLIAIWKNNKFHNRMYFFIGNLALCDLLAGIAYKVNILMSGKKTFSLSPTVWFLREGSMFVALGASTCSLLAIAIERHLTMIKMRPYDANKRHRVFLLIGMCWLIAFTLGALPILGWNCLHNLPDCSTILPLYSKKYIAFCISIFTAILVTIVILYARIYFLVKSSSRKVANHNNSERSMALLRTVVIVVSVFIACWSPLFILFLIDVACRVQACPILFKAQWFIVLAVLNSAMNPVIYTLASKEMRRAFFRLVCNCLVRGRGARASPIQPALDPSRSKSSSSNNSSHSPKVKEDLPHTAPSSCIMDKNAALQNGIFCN
T1 sequence (Q9UBY5 whole entry): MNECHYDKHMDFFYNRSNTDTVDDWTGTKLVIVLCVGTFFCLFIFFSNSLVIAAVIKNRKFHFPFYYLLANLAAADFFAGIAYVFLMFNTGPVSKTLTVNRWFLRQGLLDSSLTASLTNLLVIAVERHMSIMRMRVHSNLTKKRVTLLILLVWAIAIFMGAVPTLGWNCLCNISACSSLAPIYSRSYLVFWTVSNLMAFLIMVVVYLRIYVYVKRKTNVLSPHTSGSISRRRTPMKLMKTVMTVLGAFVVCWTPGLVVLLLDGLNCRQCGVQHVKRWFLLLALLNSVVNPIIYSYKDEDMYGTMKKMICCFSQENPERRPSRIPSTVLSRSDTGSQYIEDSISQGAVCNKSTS
T1 sequence (P04897 2-355 partner limits assumed): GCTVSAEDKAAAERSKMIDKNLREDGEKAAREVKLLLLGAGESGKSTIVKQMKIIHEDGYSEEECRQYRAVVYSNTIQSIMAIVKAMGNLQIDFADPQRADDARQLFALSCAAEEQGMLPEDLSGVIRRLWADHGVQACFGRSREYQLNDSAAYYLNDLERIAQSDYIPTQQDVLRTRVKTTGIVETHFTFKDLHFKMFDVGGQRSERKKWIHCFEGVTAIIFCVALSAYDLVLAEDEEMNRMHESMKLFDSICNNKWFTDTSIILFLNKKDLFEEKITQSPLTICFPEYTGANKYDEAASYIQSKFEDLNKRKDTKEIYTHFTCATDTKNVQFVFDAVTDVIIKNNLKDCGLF
T1 sequence (P62871 2-340 partner limits assumed): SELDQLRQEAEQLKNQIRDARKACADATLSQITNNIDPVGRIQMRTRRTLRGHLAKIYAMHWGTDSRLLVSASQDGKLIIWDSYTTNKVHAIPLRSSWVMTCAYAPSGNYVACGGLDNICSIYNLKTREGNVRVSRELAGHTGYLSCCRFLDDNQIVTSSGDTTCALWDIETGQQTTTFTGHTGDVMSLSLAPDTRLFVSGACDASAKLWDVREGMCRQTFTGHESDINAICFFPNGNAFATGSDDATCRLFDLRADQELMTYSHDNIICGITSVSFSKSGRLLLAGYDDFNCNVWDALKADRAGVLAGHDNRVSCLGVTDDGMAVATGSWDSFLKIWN
T1 sequence (P63212 2-68 partner limits assumed): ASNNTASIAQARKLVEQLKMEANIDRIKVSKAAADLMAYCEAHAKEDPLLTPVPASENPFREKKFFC

CCCCCCCC/C=C\CCCCCCCC(=O)OCC(COP(O)(O)=S)OC (racemic) [OMPT, 1-oleoyl-sn2-O-methyl-rac-glycero-3-phosphothionate]
activation in GTP[γ-35S] binding assay (LPA3 receptor): activates | stimulation of membrane ruffling and cell migration (PC-3 cells [1]): induces neither morphology changes nor migration | HA-Erk1 phosphorylation (LPA1 receptor [2]): did not increase HA-Erk1 phosphorylation | activation of PKA (PKA): does not | cellular proliferation and prevention of growth factor withdrawal-induced apoptosis (PC-3 cells [3]): increase cellular proliferation and prevent growth factor withdrawal-induced apoptosis | activation of p42/p44-MAPK (ERK1/2): efficiently activates | EC50 (LPA1 receptor [4]): > 10000 nM | activation of AKT (AKT): efficiently activates | EC50 (OVCAR3 cells): ~9 nM | activation in GTP[γ-35S] binding assay (S1P3 receptor): does not activate | calcium mobilization (LPA2 receptor; Sf9 cells expressing LPA2, FIG. 58B): did not induce calcium mobilization | EC50 (LPA2 receptor; Sf9 cells expressing LPA2, read-out: EC50 of increase in intracellular calcium concentration): > 10000 nM | stimulation of calcium mobilization (HT29 cells; FIG. 3): but not OMPT, stimulates calcium mobilization | EC50 (HT29 cells; Homo sapiens, HT-29): < 1000 nM

Source: US20080071116A1, “Modulators of Lysophosphatidic Acid (Lpa) Signaling and the Use Thereof” (THE BOARD OF REGENTS OF THE UNIVERSITY OF TEXAS SYSTEM, priority 2004, published 2008)
